Laboratory results published in ChEMBL document CHEMBL5352386 (Eur J Med Chem, 2022).
The source made the active and inactive calls. The rule behind the calls is not given here.

Columns and labels:
[1] = Acute toxicity in overnight fasted male ICR mouse assessed as body weight loss at 1 g/Kg, IG administered as single dose measured upto 15 days; settings: in vivo, po, 1000 mg/kg, 360 h, time < 15 day
[2] = Ratio of drug exposure in plasma to brain in ICR mouse measured after 20 mins by LC/MS/MS analysis; format: ADME, cell-free; settings: in vivo
[3] = biological target: Cholinesterase (Homo sapiens, UniProt P06276); assay: Inhibition of human BuChE using butyrylthiocholine iodide as substrate incubated for 10 mins followed by substrate addition by DTNB-reagent based Ellman's colorimetric assay
Cholinesterase (Homo sapiens, UniProt P06276), sequence (P06276 whole entry): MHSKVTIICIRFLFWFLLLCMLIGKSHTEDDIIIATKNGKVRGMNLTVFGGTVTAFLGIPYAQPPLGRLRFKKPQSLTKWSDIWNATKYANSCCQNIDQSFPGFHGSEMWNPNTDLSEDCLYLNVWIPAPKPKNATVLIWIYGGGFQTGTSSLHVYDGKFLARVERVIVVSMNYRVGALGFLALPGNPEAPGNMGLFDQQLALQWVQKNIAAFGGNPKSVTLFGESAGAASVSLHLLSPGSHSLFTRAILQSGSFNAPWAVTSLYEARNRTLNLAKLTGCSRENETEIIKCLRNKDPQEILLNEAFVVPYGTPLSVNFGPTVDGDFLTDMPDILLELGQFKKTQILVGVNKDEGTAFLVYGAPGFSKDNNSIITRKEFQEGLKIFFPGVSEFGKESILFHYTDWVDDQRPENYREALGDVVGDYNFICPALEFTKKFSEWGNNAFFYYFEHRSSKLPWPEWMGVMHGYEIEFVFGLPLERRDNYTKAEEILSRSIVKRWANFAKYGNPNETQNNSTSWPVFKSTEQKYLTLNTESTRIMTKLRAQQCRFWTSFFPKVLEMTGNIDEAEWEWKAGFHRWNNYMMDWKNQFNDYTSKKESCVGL

[4] = tested on: BV-2; assay: Induction of antioxidant effect in mouse BV-2 cells assessed as prevention of LPS-induced ROS production preincubated for 1 hr with compound followed by LPS stimulation and measured after 24 hrs by DCFH-DA staining based inverted fluorescence microscopy analysis; format: functional, cell-based; settings: time 25.0 hrs
[5] = tested on: Mus musculus; assay: Neuroprotective activity against Abeta42 induced cognition impairement in AD mouse model assessed as reduction in latency time to platform at 10 mg/kg, po measured after 14 days by Morris water maze analysis; format: functional, organism-based; settings: time 14.0 day
[6] = Acute toxicity in overnight fasted female ICR mouse assessed as body weight loss at 1 g/Kg, IG administered as single dose measured upto 15 days; settings: in vivo, po, 1000 mg/kg, 360 h, time < 15 day
[7] = Ratio of Cmax in ICR mouse brain to Cmax in ICR mouse plasma; format: ADME, cell-free
[8] = tested on: Mus musculus; assay: Neuroprotective activity against Abeta42 induced cognition impairement in AD mouse model assessed as reduction in confusion of escape trajectory at 10 mg/kg, po measured after 14 days; format: functional, organism-based; settings: time 14.0 day
[9] = Cmax in Sprague-Dawley rat at 10 mg/kg, po measured upto 1440 mins by LC/MS/MS analysis; format: ADME, organism-based; parameters: time < 1440 min, dose 10 mg/kg, route po; settings: in vivo, 24 h
[10] = Oral bioavailability in Sprague-Dawley rat at 10 mg/kg measured upto 1440 mins by LC/MS/MS analysis; format: ADME, organism-based; settings: in vivo
[11] = tested on: PC-12; assay: Cytotoxicity against rat PC12 cells assessed as survival rate at 100 uM measured after 24 hrs by MTT assay relative to control; settings: PC-12, 24 h, read-out: Survival
[12] = Ratio of drug exposure in plasma to brain in ICR mouse measured after 120 mins by LC/MS/MS analysis; format: ADME, cell-free; settings: in vivo, 2 h
[13] = tested on: PC-12; assay: Cytoprotective activity against H2O2 induced cell damage in rat PC12 cells at 10 to 20 uM preincubated for 1 hr with compound followed by co-incubation with H2O2 and measured after 24 hrs by MTT assay; format: functional, cell-based; settings: dose 10-20 µM, time 25.0 hrs
[14] = Ratio of drug exposure in plasma to brain in ICR mouse measured after 60 mins by LC/MS/MS analysis; format: ADME, cell-free; settings: in vivo, 1 h
[15] = tested on: Mus musculus; assay: Neuroprotective activity against Abeta42 induced cognition impairement in AD ICR mouse model assessed as increase in body weight at 10 mg/kg measured after 21 days; format: functional, organism-based; settings: time 21.0 day
[16] = AUC (0 to t) in ICR mouse brain administered as oral dose by LC/MS/MS analysis; format: ADME, tissue-based; parameters: route po
[17] = Cmax in ICR mouse plasma administered as oral dose by LC/MS/MS analysis; format: ADME; parameters: route po
[18] = MRT infinity in Sprague-Dawley rat at 10 mg/kg, po measured upto 1440 mins by LC/MS/MS analysis; format: ADME, organism-based; settings: in vivo
[19] = AUC (0 to t) in Sprague-Dawley rat at 10 mg/kg, iv measured upto 1440 mins by LC/MS/MS analysis; format: ADME, organism-based; parameters: time < 1440 min, dose 10 mg/kg, route iv; settings: in vivo
[20] = Tmax in Sprague-Dawley rat at 10 mg/kg, po measured upto 1440 mins by LC/MS/MS analysis; format: ADME, organism-based; settings: in vivo
[21] = AUC (0 to infinity) in Sprague-Dawley rat at 10 mg/kg, iv measured upto 1440 mins by LC/MS/MS analysis; format: ADME, organism-based; parameters: dose 10 mg/kg, time < 1440 min, route iv; settings: in vivo
[22] = tested on: L02; assay: Cytotoxicity against human L02 cells assessed as survival rate at 100 uM measured after 24 hrs by MTT assay relative to control; format: functional; settings: read-out: Survival
[23] = Cmax in Sprague-Dawley rat at 10 mg/kg, iv measured upto 1440 mins by LC/MS/MS analysis; format: ADME, organism-based; parameters: dose 10 mg/kg, time < 1440 min, route iv; settings: in vivo
[24] = Cytotoxicity against mouse BV-2 cells assessed as inhibition of cell growth measured after 24 hrs by MTT assay; format: toxicity, cell-based
[25] = Ratio of drug exposure in plasma to brain in ICR mouse measured after 30 mins by LC/MS/MS analysis; format: ADME, cell-free; settings: in vivo, 0.5 h
[26] = Half life in Sprague-Dawley rat at 10 mg/kg, po measured upto 1440 mins by LC/MS/MS analysis; format: ADME, organism-based; settings: in vivo
[27] = AUC (0 to t) in ICR mouse plasma administered as oral dose by LC/MS/MS analysis; format: ADME; parameters: route po
[28] = AUC (0 to infinity) in Sprague-Dawley rat at 10 mg/kg, po measured upto 1440 mins by LC/MS/MS analysis; format: ADME, organism-based; parameters: dose 10 mg/kg, time < 1440 min, route po; settings: in vivo
[29] = tested on: Mus musculus; assay: Neuroprotective activity against Abeta42 induced cognition impairement in AD ICR mouse model assessed as increase in ghrelin level in mouse plasma administered as oral dose for 21 days; format: functional, organism-based; settings: time 21.0 day
[30] = Half life in Sprague-Dawley rat at 10 mg/kg, iv measured upto 1440 mins by LC/MS/MS analysis; format: ADME, organism-based; settings: in vivo
[31] = Ratio of drug exposure in plasma to brain in ICR mouse measured after 480 mins by LC/MS/MS analysis; format: ADME, cell-free; settings: in vivo, 8 h
[32] = Ratio of drug exposure in plasma to brain in ICR mouse measured after 240 by LC/MS/MS analysis; format: ADME, cell-free; settings: in vivo, 4 h, time 240 min
[33] = AUC (0 to t) in Sprague-Dawley rat at 10 mg/kg, po measured upto 1440 mins by LC/MS/MS analysis; format: ADME, organism-based; parameters: time < 1440 min, dose 10 mg/kg, route po; settings: in vivo
[34] = tested on: Mus musculus; assay: Neuroprotective activity against Abeta42 induced cognition impairement in AD ICR mouse model assessed as increase in ghrelin level in mouse brain administered as oral dose for 21 days; format: functional, organism-based; settings: time 21.0 day
[35] = Acute toxicity in overnight fasted male ICR mouse assessed as animal death at 1 g/Kg, IG administered as single dose measured upto 15 days; settings: in vivo, po, 1000 mg/kg, 360 h, time < 15 day
[36] = tested on: SH-SY5Y; assay: Neuroprotective activity against Abeta1-42 induced toxicity in human SH-SY5Y cells at 1 to 5 uM preincubated for 1 hr with compound followed by co-incubation with Abeta1-42 and measured after 24 hrs by MTT assay; format: functional, cell-based; settings: dose 1-5 µM, time 25.0 hrs
[37] = MRT infinity in Sprague-Dawley rat at 10 mg/kg, iv measured upto 1440 mins by LC/MS/MS analysis; format: ADME, organism-based; settings: in vivo
[38] = Acute toxicity in overnight fasted female ICR mouse assessed as animal death at 1 g/Kg, IG administered as single dose measured upto 15 days; settings: in vivo, po, 1000 mg/kg, 360 h, time < 15 day
[39] = tested on: SH-SY5Y; assay: Induction of antioxidant effect in human SH-SY5Y cells assessed as prevention of Abeta1-42 induced ROS production preincubated for 1 hr with compound followed by Abeta1-42 stimulation and measured after 24 hrs by DCFH-DA staining based inverted fluorescence microscopy analysis; format: functional, cell-based; settings: time 25.0 hrs
[40] = Ratio of AUCt in ICR mouse brain to AUCt in ICR mouse plasma; format: ADME, cell-free
[41] = Acute toxicity in overnight fasted female ICR mouse assessed as abnormal behavior at 1 g/Kg, IG administered as single dose measured upto 15 days; settings: in vivo, po, 1000 mg/kg, 360 h, time < 15 day
[42] = Ratio of drug exposure in plasma to brain in ICR mouse measured after 10 mins by LC/MS/MS analysis; format: ADME, cell-free; settings: in vivo
[43] = tested on: SH-SY5Y; assay: Neuroprotective activity against glutamate induced toxicity in human SH-SY5Y cells at low concentration preincubated for 1 hr with compound followed by co-incubation with glutamate and measured after 24 hrs by MTT assay; format: functional, cell-based; settings: time 25.0 hrs
[44] = Acute toxicity in overnight fasted male ICR mouse assessed as abnormal behavior at 1 g/Kg, IG administered as single dose measured upto 15 days; settings: in vivo, po, 1000 mg/kg, 360 h, time < 15 day
[45] = Metabolic stability in human liver microsomes assessed as half life at 1 uM incubated upto 50 mins in presence of NADPH by LC/MS/MS analysis; format: ADME, Microsome
[46] = Cmax in ICR mouse brain administered as oral dose by LC/MS/MS analysis; format: ADME, tissue-based; parameters: route po
[47] = tested on: SH-SY5Y; assay: Cytotoxicity against human SH-SY5Y cells assessed as survival rate at 100 uM measured after 24 hrs by MTT assay relative to control; format: functional; settings: read-out: Survival
[48] = Metabolic stability in human liver microsomes assessed as parent compound remaining at 1 uM incubated upto 50 mins in presence of NADPH by LC/MS/MS analysis; format: ADME, Microsome; settings: read-out: Stability
[49] = biological target: Cholinesterase (Equus caballus, UniProt P81908); assay: Inhibition of equine serum BuChE using butyrylthiocholine iodide as substrate incubated for 10 mins followed by substrate addition by DTNB-reagent based Ellman's colorimetric assay
Cholinesterase (Equus caballus, UniProt P81908), sequence (P81908 whole entry): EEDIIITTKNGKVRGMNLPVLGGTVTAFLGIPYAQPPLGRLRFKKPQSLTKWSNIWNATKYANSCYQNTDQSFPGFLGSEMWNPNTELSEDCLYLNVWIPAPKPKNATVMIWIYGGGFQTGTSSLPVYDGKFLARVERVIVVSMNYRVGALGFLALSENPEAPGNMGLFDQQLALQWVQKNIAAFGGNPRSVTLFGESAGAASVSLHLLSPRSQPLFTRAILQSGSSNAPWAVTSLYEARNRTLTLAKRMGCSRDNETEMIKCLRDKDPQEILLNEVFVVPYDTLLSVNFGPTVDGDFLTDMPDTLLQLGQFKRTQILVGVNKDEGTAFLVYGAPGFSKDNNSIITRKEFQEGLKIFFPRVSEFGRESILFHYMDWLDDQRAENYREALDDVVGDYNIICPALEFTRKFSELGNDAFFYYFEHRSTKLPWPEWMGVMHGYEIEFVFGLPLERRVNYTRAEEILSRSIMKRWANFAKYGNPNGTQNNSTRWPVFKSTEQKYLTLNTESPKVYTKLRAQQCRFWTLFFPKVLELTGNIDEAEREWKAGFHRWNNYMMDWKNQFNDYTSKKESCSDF

[50] = Drug uptake in ICR mouse central nervous system; format: ADME, tissue-based; settings: in vivo
[51] = tested on: SH-SY5Y; assay: Neuroprotective activity against glutamate induced toxicity in human SH-SY5Y cells assessed as effect on cell survival rate at 10 to 20 uM preincubated for 1 hr with compound followed by co-incubation with glutamate and measured after 24 hrs by MTT assay; format: functional, cell-based; settings: dose 10-20 µM, time 25.0 hrs
[52] = Cytotoxicity against mouse BV-2 cells assessed as survival rate at 100 uM measured after 24 hrs by MTT assay relative to control; format: toxicity, cell-based; settings: read-out: Survival
[53] = Tmax in Sprague-Dawley rat at 10 mg/kg, iv measured upto 1440 mins by LC/MS/MS analysis; format: ADME, organism-based; settings: in vivo

In the case of `N#Cc1cc(Br)cc(NC(=O)Cn2c(-c3nonc3N)nc3ccccc32)c1`, the Activity [1] is reported as “Non-Toxic”, the Ratio [2] is reported as 2.23 and the IC50 [3] is reported as 45.2 nM. For the same compound, the Activity [4] was “Active”, the Activity [5] was “Active” and the Activity [6] was “Non-Toxic”. The Kp [7] was 0.1, the Activity [8] was “Active” and the Cmax [9] was 44.73 ng/mL. It also gave a bioavailability [10] of 73.4%, a viability at 100 µM [11] of 54.6% and a Ratio [12] of 0.54. The Activity [13] was “Active”, the Ratio [14] was 0.27 and the Activity [15] was “Active”. The AUC(0-t) [16] was 356 ng·h/mL, the Cmax [17] was 1760 ng/mL and the MRT inf [18] was 11.6 h. It also gave an AUC(0-t) at 24 h ([19]; Sprague-Dawley) of 860 ng·h/mL, a Tmax [20] of 0.158 h and an AUC(0-inf) ([21]; Sprague-Dawley) of 1090 ng·h/mL. It also gave a viability at 100 µM [22] of 72.4%, a Cmax ([23]; Sprague-Dawley, read-out: Cmax) of 488 ng/mL and an IC50 at 24 h [24] of 27800 nM. It also gave a Ratio [25] of 0.82, a half-life [26] of 5.47 h and an AUC(0-t) [27] of 1160 ng·h/mL. The AUC(0-inf) [28] was 662 ng·h/mL, the Activity [29] was “Active” and the half-life [30] was 8.87 h. The Ratio [31] was 0.88, the Ratio [32] was 0.27 and the AUC(0-t) at 24 h [33] was 628 ng·h/mL. For the same compound, the Activity [34] was “Active”, the Activity [35] was “Non-Toxic” and the Activity [36] was “Active”. The MRT inf [37] was 14.1 h, the Activity [38] was “Non-Toxic” and the Activity [39] was “Active”. For the same compound, the Kp [40] was 0.31, the Activity [41] was “Non-Toxic” and the Ratio [42] was 13.33. The Activity [43] was “Active”, the Activity [44] was “Non-Toxic” and the half-life at 1 µM [45] was 5.75 h. The Cmax [46] was 179 ng/mL, the viability at 100 µM [47] was 57.8% and the remaining at 50 min, 1 µM [48] was 89.7%. The IC50 [49] was 0.15 nM, the Drug uptake [50] was “Active” and the Activity [51] was “Active”.
Compound `Nc1nonc1-c1nc2ccccc2n1CC(=O)Nc1cnc2ccccc2c1` has an IC50 [3] of 50.1 nM, a Cmax [9] of 975.05 ng/mL and a bioavailability [10] of 23.6%. The viability at 24 h, 100 µM [52] was 62.7%, the MRT inf [18] was 7.37 h and the AUCt ([19]; 24 h) was 15662.39 ng·h/mL. The Tmax [20] was 0.18 h, the AUC ([21]; 24 h) was 15988.79 ng·h/mL and the viability at 100 µM [22] was 70.6%. The Cmax ([23]; 24 h) was 9752.7 ng/mL, the half-life [26] was 4.74 h and the AUC(0-inf) [28] was 3780 ng·h/mL. It also gave a half-life [30] of 2.68 h, an AUC(0-t) at 24 h [33] of 3360 ng·h/mL and an MRT inf [37] of 3.11 h. For the same compound, the viability at 100 µM [47] was 62.2% and the Tmax [53] was 1 min.
